The text below walks through data of publication PMC8918994, “Characterization of the Trimethylamine N-Oxide Transporter From Pelagibacter Strain HTCC1062 Reveals Its Oligotrophic Niche Adaption” (Frontiers in Microbiology, 2022).

What all share (assay): isothermal titration calorimetry
Holding throughout (format): binding
On the technique in general: Isothermal titration calorimetry measures the heat released or taken up as one component is titrated into another.

For assay [1], the target named is T1, TmoX1062 (Candidatus Pelagibacter communis, UniProt Q4FL33).
T1 construct: gene tmoX
T1 sequence (Q4FL33 25-314): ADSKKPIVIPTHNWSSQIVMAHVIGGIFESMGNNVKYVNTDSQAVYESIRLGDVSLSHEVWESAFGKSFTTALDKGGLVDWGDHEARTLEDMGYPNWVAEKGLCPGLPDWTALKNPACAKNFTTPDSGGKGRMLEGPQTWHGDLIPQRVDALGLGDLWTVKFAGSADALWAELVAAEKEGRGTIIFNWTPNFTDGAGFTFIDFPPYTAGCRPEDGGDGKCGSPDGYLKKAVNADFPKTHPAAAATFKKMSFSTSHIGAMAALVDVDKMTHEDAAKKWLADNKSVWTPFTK
The source says:
isothermal titration calorimetry on TmoX1062

In assay [2] the target is T2, TmoX1062 (Candidatus Pelagibacter communis, UniProt Q4FL33, F210A).
T2 construct: gene tmoX
Conditions: 10 mM Tris-HCl pH 8.0, 100 mM NaCl.

Assay [3] concerns the target T3, TmoX1062 (Candidatus Pelagibacter communis, UniProt Q4FL33, W85A).
T3 construct: gene tmoX
As to conditions: 10 mM Tris-HCl pH 8.0, 100 mM NaCl.

The target in assay [4] is T4, TmoX1062 (Candidatus Pelagibacter communis, UniProt Q4FL33, F89A).
T4 construct: gene tmoX
As to conditions: 10 mM Tris-HCl pH 8.0, 100 mM NaCl.

Assay [5] concerns the target T5, TmoX1062 (Candidatus Pelagibacter communis, UniProt Q4FL33, E114A).
T5 construct: gene tmoX
Conditions: 10 mM Tris-HCl pH 8.0, 100 mM NaCl.

The target of assay [6] is T6, TmoX1062 (Candidatus Pelagibacter communis, UniProt Q4FL33, W212A).
T6 construct: gene tmoX
Conditions: 10 mM Tris-HCl pH 8.0, 100 mM NaCl.

Assay [7] has as its target T7, TmoX1062 (Candidatus Pelagibacter communis, UniProt Q4FL33, W38A).
T7 construct: gene tmoX
Conditions: 10 mM Tris-HCl pH 8.0, 100 mM NaCl.

T5 sequence (Q4FL33 25-314 E114A): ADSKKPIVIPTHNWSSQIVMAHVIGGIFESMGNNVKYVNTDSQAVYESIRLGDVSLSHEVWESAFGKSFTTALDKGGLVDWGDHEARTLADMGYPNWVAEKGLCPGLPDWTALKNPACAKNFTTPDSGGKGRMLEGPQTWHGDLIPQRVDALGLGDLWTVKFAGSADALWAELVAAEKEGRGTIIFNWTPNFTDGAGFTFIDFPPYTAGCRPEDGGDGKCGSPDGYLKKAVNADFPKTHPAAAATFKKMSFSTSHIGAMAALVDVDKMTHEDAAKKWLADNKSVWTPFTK
T2 sequence (Q4FL33 25-314 F210A): as the sequence (Q4FL33 25-314 E114A) above, with A90E, F186A counted along it
T4 sequence (Q4FL33 25-314 F89A): as the sequence (Q4FL33 25-314 E114A) above, with F65A, A90E counted along it
T3 sequence (Q4FL33 25-314 W85A): as the sequence (Q4FL33 25-314 E114A) above, with W61A, A90E counted along it
T6 sequence (Q4FL33 25-314 W212A): as the sequence (Q4FL33 25-314 E114A) above, with A90E, W188A counted along it
T7 sequence (Q4FL33 25-314 W38A): as the sequence (Q4FL33 25-314 E114A) above, with W14A, A90E counted along it

`C[N+](C)(C)CCO` [Choline] came in with a Kd on TmoX1062 [1] of 2500 ± 330 nM.
With `C[N+](C)(C)[O-]` [TMAO], the “binding affinity relative to WT (100%)” value is “mutants W38A and F210A still maintained a relatively high TMAO binding affinity” at TmoX1062 [2]; “Mutations of Trp85, Phe89 and Trp212 to alanine severely deceased the binding affinity of TmoX1062” on TmoX1062 [3]; “Mutations of Trp85, Phe89 and Trp212 to alanine severely deceased the binding affinity of TmoX1062” on TmoX1062 [4]; “Mutation of Glu114 to alanine abolished the binding affinity of TmoX1062 toward TMAO” on TmoX1062 [5]; “Mutations of Trp85, Phe89 and Trp212 to alanine severely deceased the binding affinity of TmoX1062” on TmoX1062 [6]; “mutants W38A and F210A still maintained a relatively high TMAO binding affinity” on TmoX1062 [7]. The compound further yielded a Kd on TmoX1062 [1] of 520 ± 120 nM.

For orientation: Kd means the equilibrium constant for the complex coming apart.
